Data taken from patent publication US8093430B2, “Methods of inhibiting ethylene responses in plants using cyclopropene amine compounds” (North Carolina State University, priority 2007, dated 2012).
Where two headings read alike, the source gives them in different places.

What was measured:
bananas [1] = assay: Minimum amount of cyclopropene as a gas required to protect bananas from ethylene; assay type: in vivo, Musa paradisiaca L; details: for minimum concentration required for protection of bananas: 24 hour exposure, compound as a gas; for Minimum Concentration: amount of compound as a gas that would protect bananas by a 24 hour exposure; for minimum protection value: as a gas, restated with FIG. 3
Experimental: Untreated mature green bananas (Musa paradisiaca L) from Costa Rica which were ready for market were obtained from the local Farmers Market and were kept at 14.5° C. until use. Bananas were used within 24 hours of arrival. Experiments were conducted at approximately 22-23° C. No damaged fruit were used in the experiments. […] The jars were then vented and ethylene was injected and allowed to stand for a minimum of 15 hours and then allowed to stand at 23° C. until ethylene responses developed. For gaseous phase treatment, the compound is applied to bananas by pipetting solution onto filter paper. Filter paper is used to increase surface area in a 3 L jar. The jar is sealed for 24 hours to give enough time to diffuse through plant tissue to the ethylene binding sites. 333 ul/L of ethylene gas is added to the jars. The jars are then resealed for 15 hours. This allows for maximal exposure to ethylene to measure effectiveness of the compounds. Firmness was recorded over a number of days. Disappearance of chlorophyll was determined by extracting chlorophyll from banana peels. Absorbance was measured in a spectrometer. The minimum amount of cyclopropene necessary to protect bananas from ethylene was determined after the bananas had been exposed to the compound for 24 hours. Following this time, the fruits were vented for 10 minutes and then exposed to 333 ? l^-I of ethylene gas treatment. This has been the procedure for most other studies involving cyclopropene compounds and bananas. This time was used so that a reasonable comparison could be made with previous work ([…]. et al. 1996 a; 1996b; 1999; 2001; 2003). (See […]., et al., Effect of 1-methylcyclopropene, and methylenecyclopropene on ethylene binding and ethylene action in cut carnations, Plant Growth Reg., 18, 79-86, (1996a); […]., et al., The effect of chemical structure on the antagonism by cyclopropenes of ethylene responses in banana, Plant Growth Reg., 33, 107-110 (2001); […]., et al., 1-Substituted cyclopropenes: Effective blocking agents for ethylene action in plants, Plant Growth Reg. 40, 221-228 (2003)).

bananas [2] = assay: Time of protection of bananas against ethylene; assay type: in vivo, Musa paradisiaca L
Experimental: Untreated mature green bananas (Musa paradisiaca L) from Costa Rica which were ready for market were obtained from the local Farmers Market and were kept at 14.5° C. until use. Bananas were used within 24 hours of arrival. Experiments were conducted at approximately 22-23° C. No damaged fruit were used in the experiments. Bananas were treated to an amount of compound believed to saturate the receptor sites (10 times the minimum amount for protection). The bananas were exposed for 24 hours then vented. They were kept on a laboratory bench and each day a sample was exposed to ethylene. The day the bananas were treated with ethylene and the day the bananas turned yellow and became soft were recorded. Generally, this observation occurred about 3 days after the ethylene treatment day. The treatment day the bananas first ripened was considered to be the time of protection.

[3] = cited from earlier work
bananas [4] = assay: Stability of the compound after 1 hour incubation with acids or salts at different pH, read by banana chlorophyll; assay type: physicochemical, Musa paradisiaca L; details: for Chlorophyll (% of control): readings at 7 days
Experimental: Chlorophyll was determined by the method of Arnon (Arnon, D I (1949) Copper content in isolated chloroplasts. Polyphenoloxidase in Beta vulgaris. Plant Physiology 24:1-15) or by using a reflective chlorophyll meter (Field Scout CM 1000 Spectronic Technologies Inc.). To extract chlorophyll, a measured area of peel was cut from representative areas of the peel and placed in boiling water for 3 minutes. The samples were then removed and blended with acetone. After standing overnight in the dark, they were filtered then concentrated in a hood and chlorophyll determined by the method of Arnon (1949) according to the procedures outlined by Holden (1965).
However, these compounds are thought to be unstable under very acidic conditions. Liao et al. in some synthetic procedures lower the pH to 1-3.

banana peel = assay: Protection of chlorophyll in banana peel by compound applied as salt (swab) or gas, then ethylene; assay type: in vivo, Musa paradisiaca L; details: for difference between the highest and lowest chlorophyll value of the concentration series: FIG. 3, acetate salts, series 1 to 2.5 times starting at 3 times the gas minimum, 24 hour exposure; for chlorophyll level in banana peels against concentration: FIG. 6A, treated using acetic acid
Experimental: Untreated mature green bananas (Musa paradisiaca L) from Costa Rica which were ready for market were obtained from the local Farmers Market and were kept at 14.5° C. until use. Bananas were used within 24 hours of arrival. Experiments were conducted at approximately 22-23° C. No damaged fruit were used in the experiments. […] The jars were then vented and ethylene was injected and allowed to stand for a minimum of 15 hours and then allowed to stand at 23° C. until ethylene responses developed. When the effect of the respective salts of the cyclopropenes were assayed, the salt was mixed with the desired amount of water containing Tween 20 as a wetting agent and the acid. Usually 200 μl of water, 20 μl of Tween 20 and 100 μl of 0.1 M acid and the compound dissolved in ether were used. These salts were applied to the banana. The peels were swabbed to spread the mixture and increase the exposed surface area. The bananas were placed in an unsealed 3-liter jar and allowed to stand 24 hours. In the case of the carbonate salt, the compound was exposed to carbon dioxide in water long enough for the salt to form. In this case, the carbonate salt was formed by mixing the compound dissolved in water with CO2. The concentration of CO2 in water at 1 atmosphere and 25° C. is reported to be 0.0338 M (Daniels and Alberty 1955) (See Daniels, F, et al., Physical Chemistry, John Wiley and Sons New York, 200 (1955). […] (See Cotton, et al., Advanced Inorganic Chemistry John Wiley and Sons. New York, 152 (1999). At the end of 24 hours, ethylene was injected and the jars were sealed. After 15 hours exposure, the bananas were removed and observed for several days for the effect of ethylene. An untreated check banana and a similar untreated banana treated with ethylene only were included in each experiment for comparison. For gaseous phase treatment, the compound is applied to bananas by pipetting solution onto filter paper. Filter paper is used to increase surface area in a 3 L jar. The jar is sealed for 24 hours to give enough time to diffuse through plant tissue to the ethylene binding sites. 333 ul/L of ethylene gas is added to the jars. The jars are then resealed for 15 hours. This allows for maximal exposure to ethylene to measure effectiveness of the compounds. Firmness was recorded over a number of days. Disappearance of chlorophyll was determined by extracting chlorophyll from banana peels. Absorbance was measured in a spectrometer. For aqueous phase (salts) treatment, compounds were alternatively tested by mixing the solutions in acid and a detergent. The detergent, Tween 20, was used as a wetting agent. Solutions were then applied at various concentrations to the banana with a cotton swab. Bananas were then sealed in a jar and treated in the same manner as with the gas compound procedures described above. Chlorophyll was determined by the method of Arnon (Arnon, D I (1949) Copper content in isolated chloroplasts. Polyphenoloxidase in Beta vulgaris. Plant Physiology 24:1-15) or by using a reflective chlorophyll meter (Field Scout CM 1000 Spectronic Technologies Inc.). To extract chlorophyll, a measured area of peel was cut from representative areas of the peel and placed in boiling water for 3 minutes. The samples were then removed and blended with acetone. After standing overnight in the dark, they were filtered then concentrated in a hood and chlorophyll determined by the method of Arnon (1949) according to the procedures outlined by Holden (1965). Banana peel samples were cut and mixed with acetone to extract chlorophyll. Samples were made in an ether solution and absorbance measured at 663 nm.

Petunia hybridia = assay: Protection of petunia flowers against ethylene; assay type: in vivo; details: 100 nl, gas or carbonate salt form, ethylene 24 hours, at 5 days, FIG. 8
Experimental: FIG. 8. Protection of flowers (Petunia hybridia) by N,N-dipropyl(1-cyclopropenylmethyl)amine (100 nl) as a gas or as the carbonate salt. Treatment included check (control), ethylene, gas form, salt form of N,N-dipropyl(1-cyclopropenylmethyl)amine, from left to right. All except check were subjected to ethylene for 24 hours.
In experiments to study effects of the compounds described herein on the ethylene response in flowering plants, the petunia (Petunia hybridia), a well known ethylene sensitive flower, and the dandelion (Krigia dandelion) were used in the experiments.
FIGS. 7 and 8 present the results of using 100 nl N,N-dipropyl(1-cyclopropenylmethyl)amine on dandelions and petunias, respectively. The Krigia dandelion is commonly known as a weed that can be found along roads during particular times of the year such as spring and summer. It is of interest because ethylene can cause the plant to become dormant and, as a defense mechanism, the plant can become dormant when there is drought. […] The petunia is a well-known ethylene sensitive flower.

[5] = 24 hour exposure at 10 times the minimum amount, daily ethylene challenge

## C1=C(CNCC2=CC2)C1
Bananas [1]
  minimum concentration required for protection of bananas: 5.3 nl l^−I
  Minimum Concentration: 5.7 nl/l
Bananas [2]
  protection time: 33 days
Bananas [2]; [5]
  protection time: 33 days

## O=C=O [CO2, carbon dioxide]
[3]; 1 atmosphere and 25° C. (Daniels and Alberty 1955)
  concentration in water: 0.0338 M

## CCCCN(CCCC)CC1=CC1 [N,N--Dibutyl (1-Cyclopropenylmethyl)amine]
Bananas [1]
  minimum concentration required for protection of bananas: 184 nl l^−I
  Minimum Concentration: 184 nl/l
  minimum protection value: 184 nl l^−1
Bananas [2]
  protection time: 33 days
Bananas [2]; [5]
  protection time: 33 days
Bananas [4]; Gas control, bananas exposed as a gas 24 hours then ethylene 15 hours
  Chlorophyll (% of control): 100 % of control
Bananas [4]; different pH values down to pH 1.5 for 1 hour, re-isolated and used in the usual treatments
  inactivation by acids or salts: little or no inactivation occurred
Bananas [4]; incubated 1 hour in H2O, neutralized, ether extract applied as a gas 24 hours, ethylene 15 hours
  Chlorophyll (% of control): 98 % of control
Bananas [4]; incubated 1 hour in phosphoric acid (.1M, pH 1.5)
  Chlorophyll (% of control): 98 % of control
Bananas [4]; incubated 1 hour in sodium acetate (0.1M, pH 4.75)
  Chlorophyll (% of control): 100 % of control
Bananas [4]; incubated 1 hour in sodium formate (0.1M, pH 3.0)
  Chlorophyll (% of control): 100 % of control
Banana peel; FIG. 3, 24 hour exposure
  rapidity of receptor inactivation relative to the dimethyl compound: 1.55 ×
Banana peel
  difference between the highest and lowest chlorophyll value of the concentration series: 48 % of the control
  chlorophyll level in banana peels against concentration: ascending concentrations to have increasing levels of chlorophyll
Banana peel; FIG. 5, aqueous phase, swabbed onto the top half, four days after exposure to ethylene gas
  protection of bananas compared with the dimethyl compound: less protection

## CCN(CC)CC1=CC1 [N,N--Diethyl (1-Cyclopropenylmethyl)amine]
Bananas [1]
  minimum concentration required for protection of bananas: 59 nl l^−I
  Minimum Concentration: 59 nl/l
Bananas [2]
  protection time: 32 days
Bananas [2]; [5]
  protection time: 32 days

## CN(C)CC1=CC1 [N,N--Dimethyl (1-Cyclopropenylmethyl)amine]
Bananas [1]
  minimum concentration required for protection of bananas: 73 nl l^−I
  Minimum Concentration: 73 nl/l
  minimum protection value: 73 nl l^−1
Bananas [2]
  protection time: 34 days
Bananas [2]; [5]
  protection time: 34 days
Banana peel
  difference between the highest and lowest chlorophyll value of the concentration series: 30.9 % of the control
  chlorophyll level in banana peels against concentration: ascending concentrations to have increasingly higher chlorophyll levels

## CCCN(CCC)CC1=CC1 [N,N--Dipropyl (1-Cyclopropenylmethyl)amine]
Bananas [1]
  minimum concentration required for protection of bananas: 30 nl l^−I
  Minimum Concentration: 30 nl/l
Bananas [2]
  protection time: 33 days
Bananas [2]; [5]
  protection time: 33 days
Banana peel; FIG. 4, gaseous phase, 10 and 15 μL, after seven days
  ethylene response of bananas after gas exposure: had already begun showing an ethylene response
Banana peel; acetic acid + 50 μl, 24 hours, ethylene (300 μl/l) 15 hours, 5 days after ethylene
  Chlorophyll (% of control): 43 % of Control
Banana peel; acetic acid + 200 μl, 24 hours, ethylene (300 μl/l) 15 hours, 5 days after ethylene
  Chlorophyll (% of control): 46 % of Control
Banana peel; applied as gas, ethylene 15 hours, readings at 5 days
  Chlorophyll (% of control): 100 % of control
Banana peel; banana peel, Table 4
  effectiveness of the carbonate salt compared with other acids: as effective as the other acids
Banana peel; carbonic + 50 μl, 24 hours, ethylene (300 μl/l) 15 hours, 5 days after ethylene
  Chlorophyll (% of control): 47 % of Control
Banana peel; carbonic acid + 200 μl, 24 hours, ethylene (300 μl/l) 15 hours, 5 days after ethylene
  Chlorophyll (% of control): 48 % of Control
Banana peel; salt with 0.1 M acetic acid buffer (pH 4.75), swab to ½ banana, 24 hours, ethylene 15 hours, readings at 5 days
  Chlorophyll (% of control): 33 % of control
Banana peel; salt with 0.1 M acetic acid, swab to ½ banana, 24 hours, ethylene 15 hours, readings at 5 days
  Chlorophyll (% of control): 31 % of control
Banana peel; salt with 0.1 M formic acid, swab to ½ banana, 24 hours, ethylene 15 hours, readings at 5 days
  Chlorophyll (% of control): 30 % of control
Banana peel; salt with phosphoric acid (pH 1.5), swab to ½ banana, 24 hours, ethylene 15 hours, readings at 5 days
  Chlorophyll (% of control): 30 % of control
Petunia hybridia
  effect on petunia flowers exposed to ethylene: appears to withstand the ethylene response

## O=C(O)O [carbonic acid]
[3]; corrected for the equilibrium (Cotton et al. 1999)
  pKa: 3.58
[3]; usually published value
  pKa: 6.38

## N-(1-methylcyclopropene)-aniline
Bananas [1]
  minimum concentration required for protection of bananas: 248 nl l^−I
  Minimum Concentration: 248 nl/l
Bananas [2]
  protection time: 32 days
Bananas [2]; [5]
  protection time: 32 days
